Reference: patent US8778982B2, “Synergistic microbicidal compositions” (Rohm and Haas Company, priority 2007, dated 2014)
Where “and” joins values, the source holds several entries; their conditions need not be identical. Equal entries are not always repeated. Where two headings read alike, the source gives them in different places.

How the values were obtained:
Format in all cases: cell-based
[1] = test system: Escherichia coli (E. coli—ATCC #8739); experiment: Synergy test, microtiter plate high resolution MIC assay, M9GY medium, bacterium; settings: for Qb: B alone where Qa = 0; for MIC: Escherichia coli
From the text: (§1) One measure of synergism is the industrially accepted method described by Kull, F. C.; Eisman, P. C.; Sylwestrowicz, H. D. and Mayer, R. L., in Applied Microbiology 9:538-541 (1961), using the ratio determined by the formula: Qa/QA+Qb/QB=Synergy Index(“SI”) wherein: • QA=concentration of compound A (first component) in ppm, acting alone, which produced an end point (MIC of Compound A). • Qa=concentration of compound A in ppm, in the mixture, which produced an end point. • QB=concentration of compound B (second component) in ppm, acting alone, which produced an end point (MIC of Compound B). • Qb=concentration of compound B in ppm, in the mixture, which produced an end point.
(§2) When the sum of Qa/QA and Qb/QB is greater than one, antagonism is indicated. […] The lower the SI, the greater is the synergy shown by that particular mixture. The minimum inhibitory concentration (MIC) of a microbicide is the lowest concentration tested under a specific set of conditions that prevents the growth of the tested microorganisms.
(§3) Synergy tests were conducted using standard microtiter plate assays with media designed for optimal growth of the test microorganism. Minimal salt medium supplemented with 0.2% glucose and 0.1% yeast extract (M9GY medium) was used for testing bacteria; Potato Dextrose Broth (PDB medium) was used for testing yeast and mold. In this method, a wide range of combinations of microbicides and other personal care raw materials was tested by conducting high resolution MIC assays in the presence of various concentrations of CMIT/MIT, MIT, or BIT. High resolution MICs were determined by adding varying amounts of microbicide to one column of a microtitre plate and doing subsequent […] dilutions using an automated liquid handling system to obtain a series of endpoints ranging from 2 ppm to 10,000 ppm active ingredient.
(§4) The synergy of the combinations of the present invention was determined against a bacterium, Escherichia coli (E. coli—ATCC #8739), a yeast, Candida albicans (C. albicans—ATCC 10231), and a mold, Aspergillus niger (A. niger—ATCC 16404). The bacteria were used at a concentration of about 5×10^6 bacteria per mL and the yeast and mold at 5×10^5 fungi per mL. These microorganisms are representative of natural contaminants in many consumer and industrial applications. […] (yeast and mold) or 30° C. (bacteria).

[2] = test system: Candida albicans (C. albicans—ATCC 10231); experiment: Synergy test, microtiter plate high resolution MIC assay, PDB medium, yeast; settings: for Qb: B alone where Qa = 0; for MIC: Candida albicans
From the text: as §1, §2, §3, §4

[3] = test system: Aspergillus niger (A. niger—ATCC 16404); experiment: Synergy test, microtiter plate high resolution MIC assay, PDB medium, mold; settings: for Qb: B alone where Qa = 0; for MIC: Aspergillus niger
From the text: as §1, §2, §3, §4

[4] = E. coli 8739 - M9GY (1 day), A = MIT, B = Myristamidopropyl PG-dimonium chloride phosphate
[5] = C. albicans 10231 - PDB (6 days), A = MIT, B = Myristamidopropyl PG-dimonium chloride phosphate
[6] = A. niger 16404 - PDB (3 days), A = MIT, B = Myristamidopropyl PG-dimonium chloride phosphate
[7] = E. coli 8739 - M9GY (1 day), A = BIT, B = Caprylic acid
[8] = C. albicans 10231 - PDB (6 days), A = BIT, B = Caprylic acid
[9] = A. niger 16404 - PDB (3 days), A = BIT, B = Caprylic acid
[10] = ATCC8739, 48 h, E. coli 8739, M9GY, 2 days, 30° C., read-out: MIC of the component acting alone (QA or QB)
[11] = ATCC16404, 72 h, A. niger 16404, PDB, 3 days, 25° C., read-out: MIC of the component acting alone (QA or QB)
[12] = E. coli 8739 - M9GY (6 days), A = MIT, B = Ethylhexylglycerin
[13] = ATCC8739, 24 h, read-out: MIC of the component acting alone (QA or QB)
[14] = C. albicans 10231 - PDB (6 days), A = MIT, B = Ethylhexylglycerin
[15] = ATCC10231, 24 h, read-out: MIC of the component acting alone (QA or QB)
[16] = A. niger 16404 - PDB (10 days), A = MIT, B = Ethylhexylglycerin
[17] = ATCC16404, 72 h, read-out: MIC of the component acting alone (QA or QB)

Compound: 1-propanaminium, 3,3′,3″-[phosphinylidynetris(oxy)]-tris-[N-(aminopropyl)-2-hydroxy-N,N-dimethyl-N,N′,N″-tri-C6-18 acyl deriv. trichlorides
- MIC of the component acting alone (Qa or Qb with the other component at 0) ([1]; E. coli 8739, M9GY, 1 day): 80 ppm
- SI (synergy index) ([1]; E. coli 8739, M9GY, 1 day): 1.00
- Synergy Index (SI) = Qa/QA+Qb/QB ([1]; E. coli 8739, M9GY, 2 days): 1.00
- MIC of the component acting alone (QA or QB) ([1]; E. coli 8739, M9GY, 2 days, 30° C.): 100 ppm
- SI [1, 4]: 1.00
- Qb [1, 4]: 80 ppm
- Synergy Index (SI) = Qa/QA+Qb/QB ([2]; C. albicans 10231, PDB, 1 day): 1.00
- MIC of the component acting alone (QA or QB) ([2]; C. albicans 10231, PDB, 1 day, 25° C.): 800 ppm
- MIC of the component acting alone (Qa or Qb with the other component at 0) ([2]; C. albicans 10231, PDB, 2 days): 2000 ppm
- SI (synergy index) ([2]; C. albicans 10231, PDB, 2 days): 1.00
- SI [2, 5]: 1.00
- Qb [2, 5]: 1000 ppm
- Synergy Index (SI) = Qa/QA+Qb/QB ([3]; A. niger 16404, PDB, 3 days): 1.00
- MIC of the component acting alone (QA or QB) ([3]; A. niger 16404, PDB, 3 days, 25° C.): 2000 ppm
- MIC of the component acting alone (Qa or Qb with the other component at 0) ([3]; A. niger 16404, PDB, 4 days): 2000 ppm
- SI (synergy index) ([3]; A. niger 16404, PDB, 4 days): 1.00
- SI [3, 6]: 1.00
- Qb [3, 6]: 2000 ppm

Compound: O=c1[nH]sc2ccccc12 [BIT, 1,2-benzisothiazolin-3-one]
- MIC of the component acting alone (Qa or Qb with the other component at 0) ([1]; E. coli 8739, M9GY, 1 day): 20.00 ppm
- SI (synergy index) ([1]; E. coli 8739, M9GY, 1 day): 1.00
- MIC of the component acting alone (Qa or Qb with the other component at 0) ([1]; E. coli 8739, M9GY, 2 days): 20.00 ppm
- SI (synergy index) ([1]; E. coli 8739, M9GY, 2 days): 1.00
- SI [1, 7]: 1.00
- Qa ([1]; E. coli 8739 - M9GY (1 day), A = BIT, B = Caprylic acid, A alone where Qb = 0): 20 ppm
- MIC of the component acting alone (Qa or Qb with the other component at 0) ([2]; C. albicans 10231, PDB, 1 day): 15.00 ppm
- SI (synergy index) ([2]; C. albicans 10231, PDB, 1 day): 1.00
- MIC of the component acting alone (Qa or Qb with the other component at 0) ([2]; C. albicans 10231, PDB, 2 days): 30.00 ppm
- SI (synergy index) ([2]; C. albicans 10231, PDB, 2 days): 1.00
- MIC of the component acting alone (Qa or Qb with the other component at 0) ([2]; C. albicans 10231, PDB, 6 days): 30.00 ppm and 40.00 ppm
- SI (synergy index) ([2]; C. albicans 10231, PDB, 6 days): 1.00
- SI [2, 8]: 1.00
- Qa ([2]; C. albicans 10231 - PDB (6 days), A = BIT, B = Caprylic acid, A alone where Qb = 0): 20 ppm
- MIC of the component acting alone (Qa or Qb with the other component at 0) ([3]; A. niger 16404, PDB, 3 days): 50 ppm
- SI (synergy index) ([3]; A. niger 16404, PDB, 3 days): 1.00
- MIC of the component acting alone (Qa or Qb with the other component at 0) ([3]; A. niger 16404, PDB, 4 days): 50 ppm
- SI (synergy index) ([3]; A. niger 16404, PDB, 4 days): 1.00
- MIC of the component acting alone (Qa or Qb with the other component at 0) ([3]; A. niger 16404, PDB, 10 days): 100.00 ppm
- SI (synergy index) ([3]; A. niger 16404, PDB, 10 days): 1.00
- SI [3, 9]: 1.00
- Qa ([3]; A. niger 16404 - PDB (3 days), A = BIT, B = Caprylic acid, A alone where Qb = 0): 50 ppm

Compound: CCCCCCCC(=O)O [Caprylic acid, octanoic acid]
- Synergy Index (SI) = Qa/QA+Qb/QB ([1]; E. coli 8739, M9GY, 1 day): 1.00
- Synergy Index (SI) = Qa/QA+Qb/QB ([1]; E. coli 8739, M9GY, 2 days): 1.00
- SI [1, 7]: 1.00
- Qb [1, 7]: 8000 ppm
- MIC ([1]; ATCC8739, 24 h, E. coli 8739, M9GY, 1 day, 30° C., read-out: MIC of the component acting alone (QA or QB)): 8000 µg/mL
- MIC [1, 10]: 8000 µg/mL
- Synergy Index (SI) = Qa/QA+Qb/QB ([2]; C. albicans 10231, PDB, 6 days): 1.00
- SI [2, 8]: 1.00
- Qb [2, 8]: 2000 ppm
- MIC ([2]; ATCC10231, 144 h, C. albicans 10231, PDB, 6 days, 25° C., read-out: MIC of the component acting alone (QA or QB)): 2000 µg/mL
- Synergy Index (SI) = Qa/QA+Qb/QB ([3]; A. niger 16404, PDB, 3 days): 1.00
- Synergy Index (SI) = Qa/QA+Qb/QB ([3]; A. niger 16404, PDB, 10 days): 1.00
- SI [3, 9]: 1.00
- Qb [3, 9]: 2000 ppm
- MIC [3, 11]: 2000 µg/mL
- MIC ([3]; ATCC16404, 240 h, A. niger 16404, PDB, 10 days, 25° C., read-out: MIC of the component acting alone (QA or QB)): 2000 µg/mL

Compound: CCCCCCC(O)CO (stereo not drawn) [Caprylyl glycol, 1,2-octanediol]
- Synergy Index (SI) = Qa/QA+Qb/QB ([1]; E. coli 8739, M9GY, 2 days): 1.00
- MIC [1, 10]: 2000 µg/mL
- Synergy Index (SI) = Qa/QA+Qb/QB ([2]; C. albicans 10231, PDB, 1 day): 1.00
- MIC ([2]; ATCC10231, 24 h, C. albicans 10231, PDB, 1 day, 25° C., read-out: MIC of the component acting alone (QA or QB)): 3000 µg/mL
- Synergy Index (SI) = Qa/QA+Qb/QB ([3]; A. niger 16404, PDB, 3 days): 1.00
- MIC [3, 11]: 3000 µg/mL

Compound: CCCCC(CC)COCC(O)CO (stereo not drawn) [Ehylhexylglycerin]
- MIC of the component acting alone (Qa or Qb with the other component at 0) ([1]; E. coli 8739, M9GY, 2 days): 3000 ppm
- SI (synergy index) ([1]; E. coli 8739, M9GY, 2 days): 1.00
- MIC of the component acting alone (Qa or Qb with the other component at 0) ([2]; C. albicans 10231, PDB, 6 days): 10000 ppm
- SI (synergy index) ([2]; C. albicans 10231, PDB, 6 days): 1.00
- MIC of the component acting alone (Qa or Qb with the other component at 0) ([3]; A. niger 16404, PDB, 3 days): 2000 ppm
- SI (synergy index) ([3]; A. niger 16404, PDB, 3 days): 1.00

Compound: CCCCC(CC)COCC(O)CO (stereo not drawn) [Ethylhexylglycerin, 3-[(2-ethylhexyl)oxy]-1,2propanediol]
- Synergy Index (SI) = Qa/QA+Qb/QB ([1]; E. coli 8739, M9GY, 1 day): 1.00
- SI [1, 12]: 1.00
- Qb [1, 12]: 3000 ppm
- MIC [1, 13]: 3000 µg/mL
- Synergy Index (SI) = Qa/QA+Qb/QB ([2]; C. albicans 10231, PDB, 1 day): 1.00
- SI [2, 14]: 1.00
- Qb [2, 14]: 2000 ppm
- MIC [2, 15]: 2000 µg/mL
- Synergy Index (SI) = Qa/QA+Qb/QB ([3]; A. niger 16404, PDB, 3 days): 1.00
- SI [3, 16]: 1.00
- Qb [3, 16]: 2000 ppm
- MIC [3, 17]: 2000 µg/mL

Compound: CCCCCCCCCCCC(=O)OCC(O)CO (stereo not drawn) [Glycerol monolaurate]
- SI (synergy index) ([1]; E. coli 8739, M9GY, 1 day): 1.00
- Synergy Index (SI) = Qa/QA+Qb/QB ([1]; E. coli 8739, M9GY, 1 day): 1.00
- MIC [1, 13]: 20000 µg/mL
- MIC ([1]; ATCC8739, 24 h, read-out: MIC of the component acting alone (Qa or Qb with the other component at 0)): 20000 µg/mL
- Synergy Index (SI) = Qa/QA+Qb/QB ([2]; C. albicans 10231, PDB, 1 day): 1.00
- SI (synergy index) ([2]; C. albicans 10231, PDB, 6 days): 1.00
- Synergy Index (SI) = Qa/QA+Qb/QB ([2]; C. albicans 10231, PDB, 6 days): 1.00
- MIC [2, 15]: 20000 µg/mL
- MIC ([2]; ATCC10231, 144 h, read-out: MIC of the component acting alone (QA or QB)): 20000 µg/mL
- MIC ([2]; ATCC10231, 144 h, read-out: MIC of the component acting alone (Qa or Qb with the other component at 0)): 20000 µg/mL
- Synergy Index (SI) = Qa/QA+Qb/QB ([3]; A. niger 16404, PDB, 3 days): 1.00
- SI (synergy index) ([3]; A. niger 16404, PDB, 10 days): 1.00
- Synergy Index (SI) = Qa/QA+Qb/QB ([3]; A. niger 16404, PDB, 10 days): 1.00
- MIC [3, 17]: 20000 µg/mL
- MIC ([3]; ATCC16404, 240 h, read-out: MIC of the component acting alone (QA or QB)): 20000 µg/mL
- MIC ([3]; ATCC16404, 240 h, read-out: MIC of the component acting alone (Qa or Qb with the other component at 0)): 20000 µg/mL
